Reference: ChEMBL document CHEMBL1201862, “PubChem BioAssay data set” (2004)
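Cultured in 96-well plates, cells were exposed to test compound for 48 hours across five concentrations. Here, GI50 denotes the concentration required for 50% inhibition of growth.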 The source made the active and inactive calls. Rule as the data show it: active = GI50 up to about 1.1 µM and inactive = higher. Starred links: 1 amine or outer side, 2 acyl side, 3 side chain; linkers in the order of their positions; H or OH if unused. Positions of bridges follow the written chain, without caps; N, C: chain ends. Non-standard residues stand in square brackets, D forms with d. Residues, ends and D or L forms follow the SMILES beside them. Chains are numbered I, II in the order given. Actinocin(1to9) = Cc1c2oc3c(C)ccc(C(=O)[*:2])c3nc-2c(C(=O)[*:1])c(N)c1=O; NMeV = CN[CH](C(=O)O)C(C)C; Sar = CNCC(=O)O

Assays:
Experiment in all cases: growth of human tumour cells (NCI), 48 h
[1] = test system: SNB-19
[2] = test system: NCI-H23
[3] = test system: SK-MEL-2
[4] = test system: HL-60
[5] = test system: HCC 2998
[6] = test system: Hs-578T
[7] = test system: OVCAR-5
[8] = test system: HOP-92
[9] = test system: OVCAR-4
[10] = test system: CAKI-1
[11] = test system: K562
[12] = test system: HCT-15
[13] = test system: M14
[14] = test system: HCT-116
[15] = test system: OVCAR-8
[16] = test system: SW-620
[17] = test system: RPMI-8226
[18] = test system: ACHN
[19] = test system: UO-31
[20] = test system: MDA-MB-435

Compound	GI50 [1]	GI50 [2]	GI50 [3]	GI50 [4]	GI50 [5]	GI50 [6]	GI50 [7]	GI50 [8]	GI50 [9]	GI50 [10]	GI50 [11]	GI50 [12] [µM]	GI50 [13]	GI50 [14]	GI50 [15]	GI50 [16]	GI50 [17]	GI50 [18]	GI50 [19]	GI50 [20]
Cc1nc2c(sc3nc4c(cc32)CCC4)c(=O)o1	> 53.2 µM (inactive)	67.9 µM (inactive)	> 100 µM (inactive)	49.9 µM (inactive)	28.6 µM (inactive)	45.9 µM (inactive)	> 95.1 µM (inactive)	> 50.1 µM (inactive)	32.4 µM (inactive)	> 100 µM (inactive)	57.9 µM (inactive)	34.4	64.3 µM (inactive)	32.8 µM (inactive)	36.1 µM (inactive)	> 59.7 µM (inactive)	48.9 µM (inactive)	> 66.7 µM (inactive)	> 56.1 µM (inactive)	36.6 µM (inactive)
CC(C)COC(=O)OC(=O)c1ccc(N(C)Cc2cnc3nc(N)nc(N)c3n2)cc1	16.1 µM (inactive)	11 µM (inactive)	> 100 µM (inactive)	8.34 µM (inactive)	> 100 µM (inactive)	> 100 µM (inactive)	> 100 µM (inactive)	47.5 µM (inactive)	> 100 µM (inactive)	> 32.1 µM (inactive)	0.466 µM (active)	1.75	9.44 µM (inactive)	2.43 µM (inactive)	6.12 µM (inactive)	3.86 µM (inactive)	> 80.9 µM (inactive)	11.4 µM (inactive)	> 51.3 µM (inactive)	> 100 µM (inactive)
CN1CN(c2ccccc2)C2(CCN(C(=O)OC(C)(C)C)CC2)C1=O	> 100 µM (inactive)	> 100 µM (inactive)	> 100 µM (inactive)	> 100 µM (inactive)	> 100 µM (inactive)	57 µM (inactive)	> 100 µM (inactive)	32.4 µM (inactive)	> 100 µM (inactive)	> 100 µM (inactive)	75.3 µM (inactive)	> 100	> 100 µM (inactive)	> 100 µM (inactive)	> 100 µM (inactive)	> 100 µM (inactive)	98.2 µM (inactive)	> 100 µM (inactive)	> 100 µM (inactive)	> 100 µM (inactive)
CCOC(=O)NNC1(SC)NC(=O)c2c(cc(Cl)oc2=O)O1 (stereo not given)	11.5 µM (inactive)	3.61 µM (inactive)	7.73 µM (inactive)	1.9 µM (inactive)	4.29 µM (inactive)	5.64 µM (inactive)	11.5 µM (inactive)	1.96 µM (inactive)	6.17 µM (inactive)	2.72 µM (inactive)	1.62 µM (inactive)	2.17	3.37 µM (inactive)	1.46 µM (inactive)	2.07 µM (inactive)	3.31 µM (inactive)	2.84 µM (inactive)	1.87 µM (inactive)	1.72 µM (inactive)	4.83 µM (inactive)
Nc1cccc(CCN2CCN(CCCc3ccccc3)CC2)c1	> 100 µM (inactive)	50.2 µM (inactive)	> 100 µM (inactive)	17.2 µM (inactive)	15 µM (inactive)	25.1 µM (inactive)	> 100 µM (inactive)	4.11 µM (inactive)	39.9 µM (inactive)	53.3 µM (inactive)	12.9 µM (inactive)	18	17.6 µM (inactive)	17.6 µM (inactive)	22.6 µM (inactive)	30.5 µM (inactive)	33.2 µM (inactive)	> 100 µM (inactive)	26.7 µM (inactive)	18.6 µM (inactive)
CCC(C)C1NC(=O)C(NC(=O)c2c3nc4c(C(=O)NC5C(=O)NC(C(C)CC)C(=O)N6CCCC6C(=O)N(C)CC(=O)N(C)C(C(C)C)C(=O)OC5C)ccc(C)c4oc-3c(C)c(=O)c2N)C(C)OC(=O)C(C(C)C)N(C)C(=O)CN(C)C(=O)C2CCCN2C1=O (stereo not given) (I: TIP[Sar][NMeV] / II: TIP[Sar][NMeV]; ester I:1-I:C, II:1-II:C; linker I:N-II:N via Actinocin(1to9); configuration not given here)	< 0.0001 µM (active)	0.00133 µM (active)	0.00101 µM (active)	< 0.0001 µM (active)	0.013 µM (active)	0.0065 µM (active)	0.00459 µM (active)	0.00255 µM (active)	0.00625 µM (active)	0.0059 µM (active)	< 0.0001 µM (active)	0.0172	< 0.00995 µM (active)	< 0.0001 µM (active)	0.000262 µM (active)	0.000236 µM (active)	0.000143 µM (active)	0.00162 µM (active)	0.0204 µM (active)	0.000539 µM (active)
O=C(NCc1ccccc1)c1cc2ccccc2o/c1=N\c1cccc(C(F)(F)F)c1	> 100 µM (inactive)	57.7 µM (inactive)	28.6 µM (inactive)	20.5 µM (inactive)	21.2 µM (inactive)	> 100 µM (inactive)	> 100 µM (inactive)	75.2 µM (inactive)	69.7 µM (inactive)	> 100 µM (inactive)	36.5 µM (inactive)	36.9	87.3 µM (inactive)	55.6 µM (inactive)	56.1 µM (inactive)	43 µM (inactive)	30.3 µM (inactive)	46.3 µM (inactive)	79.1 µM (inactive)	46 µM (inactive)
O=C(OCc1ccccc1)N1c2cc([N+](=O)[O-])ccc2C(=O)N2CCC[C@H]2C1O (stereo not given in full)	> 100 µM (inactive)	> 100 µM (inactive)	> 100 µM (inactive)	> 100 µM (inactive)	> 100 µM (inactive)	> 100 µM (inactive)	> 100 µM (inactive)	> 100 µM (inactive)	> 100 µM (inactive)	> 100 µM (inactive)	> 100 µM (inactive)	> 100	> 100 µM (inactive)	> 100 µM (inactive)	> 100 µM (inactive)	> 100 µM (inactive)	> 100 µM (inactive)	> 100 µM (inactive)	> 100 µM (inactive)	> 100 µM (inactive)
CCCCCCCCCC1CC(=O)NCC(=O)NC(C(C)C)C(=O)NC(CC(C)C)C(=O)NC(C)C(=O)NC(C(C)C)C(=O)O1 (stereo not given)	18.7 µM (inactive)	13.6 µM (inactive)	25.2 µM (inactive)	56.1 µM (inactive)	> 42.7 µM (inactive)	18 µM (inactive)	38.4 µM (inactive)	15.5 µM (inactive)	4.76 µM (inactive)	> 100 µM (inactive)	16.8 µM (inactive)	> 100	20.2 µM (inactive)	14.8 µM (inactive)	6.03 µM (inactive)	3.84 µM (inactive)	17.1 µM (inactive)	> 79.8 µM (inactive)	> 100 µM (inactive)	10.4 µM (inactive)
O=C1CC(n2cccc2)c2c(Br)sc(Br)c21 (stereo not given)	14.9 µM (inactive)	13.6 µM (inactive)	14.5 µM (inactive)	15.1 µM (inactive)	15.4 µM (inactive)	25.1 µM (inactive)	17.7 µM (inactive)	16.1 µM (inactive)	16.7 µM (inactive)	6.49 µM (inactive)	14.5 µM (inactive)	12.8	14.9 µM (inactive)	15.3 µM (inactive)	15.2 µM (inactive)	12.4 µM (inactive)	8.24 µM (inactive)	17.5 µM (inactive)	2.56 µM (inactive)	14.4 µM (inactive)
